# Tests used:
# Assay type in all cases: functional
# [1] = tested on: Ralstonia solanacearum; assay: Antibacterial activity against Pseudomonas solanacearum after 12 to 16 hrs by plate reader analysis
# [2] = tested on: Staphylococcus aureus; assay: Antibacterial activity against Staphylococcus aureus after 12 to 16 hrs by plate reader analysis
# [3] = tested on: Bacillus cereus; assay: Antibacterial activity against Bacillus cereus after 12 to 16 hrs by plate reader analysis
# [4] = tested on: Ralstonia solanacearum; assay: Antibacterial activity against Ralstonia solanacearum after 12 to 16 hrs by plate reader analysis
Compound,MIC [1],MIC [2],MIC [3],MIC [4]
O=c1ccc2c3c(cc[n+]2Cc2ccc(C(F)(F)F)cc2)c2ccccc2n13.[Cl-],62.5 µg/mL,7.81 µg/mL,62.5 µg/mL,15.6 µg/mL
C[n+]1ccc2c3ccccc3n3c(=O)ccc1c23.[I-],> 125 µg/mL,> 125 µg/mL,> 125 µg/mL,> 125 µg/mL
O=c1ccc2c3c(cc[n+]2Cc2ccccc2F)c2ccccc2n13.[Cl-],3.91 µg/mL,1.95 µg/mL,7.81 µg/mL,15.6 µg/mL
O=c1ccc2c3c(cc[n+]2Cc2ccccc2)c2ccccc2n13.[Br-],7.81 µg/mL,0.98 µg/mL,3.91 µg/mL,3.91 µg/mL
CC(C)C[n+]1ccc2c3ccccc3n3c(=O)ccc1c23.[I-],62.5 µg/mL,125 µg/mL,> 125 µg/mL,> 125 µg/mL
O=C1CCC2c3c(c4ccccc4n31)CCN2Cc1ccccc1 (stereo unspecified),> 125 µg/mL,> 125 µg/mL,> 125 µg/mL,> 125 µg/mL
O=c1ccc2c3c(cc[n+]2Cc2ccc(F)cc2F)c2ccccc2n13.[Cl-],7.81 µg/mL,0.98 µg/mL,31.2 µg/mL,31.2 µg/mL
Cc1ccc(C[n+]2ccc3c4ccccc4n4c(=O)ccc2c34)cc1.[Cl-],7.81 µg/mL,1.95 µg/mL,15.6 µg/mL,31.2 µg/mL
Cc1cccc(C[n+]2ccc3c4ccccc4n4c(=O)ccc2c34)c1.[Cl-],7.81 µg/mL,1.95 µg/mL,15.6 µg/mL,15.6 µg/mL
O=c1ccc2c3c(cc[n+]2Cc2ccccc2)c2ccccc2n13.[Cl-],1.95 µg/mL,1.95 µg/mL,3.91 µg/mL,3.91 µg/mL
O=c1ccc2c3c(cc[n+]2[O-])c2ccccc2n13,7.81 µg/mL,15.6 µg/mL,15.6 µg/mL,15.6 µg/mL
O=c1ccc2c3c(cc[n+]2Cc2ccc(F)cc2)c2ccccc2n13.[Cl-],15.6 µg/mL,1.95 µg/mL,31.2 µg/mL,31.2 µg/mL
CCCCCCCC[n+]1ccc2c3ccccc3n3c(=O)ccc1c23.[Br-],7.81 µg/mL,0.98 µg/mL,62.5 µg/mL,31.2 µg/mL
CC1(C)S[C@@H]2[C@H](NC(=O)[C@H](N)c3ccccc3)C(=O)N2[C@H]1C(=O)[O-].[Na+] [AMPICILLIN SODIUM],7.81 µg/mL,3.91 µg/mL,3.91 µg/mL,7.81 µg/mL
CCCC[n+]1ccc2c3ccccc3n3c(=O)ccc1c23.[I-],62.5 µg/mL,62.5 µg/mL,125 µg/mL,62.5 µg/mL
O=c1ccc2nccc3c4ccccc4n1c23 [CANTHIN-6-ONE],3.91 µg/mL,31.2 µg/mL,7.81 µg/mL,7.81 µg/mL
O=c1ccc2c3c(cc[n+]2Cc2c(F)cccc2F)c2ccccc2n13.[Cl-],7.81 µg/mL,0.98 µg/mL,15.6 µg/mL,15.6 µg/mL
C[C@@H]1O[C@@H]1P(=O)([O-])[O-].[Na+].[Na+] [PHOSPHOMYCIN DISODIUM],125 µg/mL,3.91 µg/mL,3.91 µg/mL,1.95 µg/mL
O=C1CCc2nccc3c4ccccc4n1c23,7.81 µg/mL,125 µg/mL,15.6 µg/mL,15.6 µg/mL
CCC[n+]1ccc2c3ccccc3n3c(=O)ccc1c23.[I-],> 125 µg/mL,> 125 µg/mL,> 125 µg/mL,> 125 µg/mL
C=CC[n+]1ccc2c3ccccc3n3c(=O)ccc1c23.[Br-],62.5 µg/mL,62.5 µg/mL,125 µg/mL,62.5 µg/mL
O=c1ccc2c3c(cc[n+]2Cc2ccc(Cl)cc2)c2ccccc2n13.[Cl-],15.6 µg/mL,7.81 µg/mL,15.6 µg/mL,15.6 µg/mL
CC(C)[n+]1ccc2c3ccccc3n3c(=O)ccc1c23.[I-],> 125 µg/mL,> 125 µg/mL,> 125 µg/mL,> 125 µg/mL
O=c1ccc2c3c(cc[n+]2Cc2ccc(CBr)cc2)c2ccccc2n13.[Br-],31.2 µg/mL,7.81 µg/mL,62.5 µg/mL,31.2 µg/mL
O=C1CCC2NCCc3c2n1c1ccccc31 (stereo unspecified),> 125 µg/mL,> 125 µg/mL,> 125 µg/mL,> 125 µg/mL
Cc1ccccc1C[n+]1ccc2c3ccccc3n3c(=O)ccc1c23.[Cl-],3.91 µg/mL,1.95 µg/mL,7.81 µg/mL,7.81 µg/mL
CC[n+]1ccc2c3ccccc3n3c(=O)ccc1c23.[I-],> 125 µg/mL,> 125 µg/mL,> 125 µg/mL,> 125 µg/mL
O=c1ccc2c3c(cc[n+]2Cc2ccc(OCc4ccccc4)cc2)c2ccccc2n13.[Cl-],3.91 µg/mL,0.98 µg/mL,15.6 µg/mL,7.81 µg/mL
CCCCC[n+]1ccc2c3ccccc3n3c(=O)ccc1c23.[I-],15.6 µg/mL,31.2 µg/mL,62.5 µg/mL,31.2 µg/mL

# — ChEMBL document CHEMBL3745648, “Synthesis, in vitro antibacterial activities of a series of 3-N-substituted canthin-6-ones” (2016)
